Experimental data taken from PMC11714206, “Massively Parallel Screening of Toll/Interleukin‐1 Receptor (TIR)‐Derived Peptides Reveals Multiple Toll‐Like Receptors (TLRs)‐Targeting Immunomodulatory Peptides” (Advanced Science, 2024).
Each block holds one sequence with its values, some of them ahead of it.

Biological target: T1, MAL^TIR (Homo sapiens, UniProt P58753)
T1 construct: MAL (residues 79–221); 6xHis; made in house; host or cells: E. coli BL21 (DE3)
Assay: T‐Surf phage library (P8 and P3) selection against MAL^TIR, four rounds, NGS read counts
Assay type: binding
Details: for P8_MAL Rank (after) / P8_MAL Rank (before): P8 library; for P3_MAL Rank (after) / P3_MAL Rank (before): P3 library; for Population: 4th round of selection against MAL TIR, share of NGS reads
Outline: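 Read counts come from NGS of phage pools enriched over four selection rounds on the plate‐coated TIR domain (5 µg mL^−1). Each round: 1 h phage binding at room temperature after 0.2% BSA blocking, Tween washes, acid elution, amplification in E. coli TG1 with M13KO7 helper.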

[1] = P3_MAL: rank by count after grouping
[2] = P3_MAL: rank by count before grouping
[3] = P8_MAL: rank by count after grouping
[4] = P8_MAL: rank by count before grouping
[5] = selection against MAL TIR, rank by count after grouping
[6] = selection against MAL TIR, rank by count before grouping
[7] = selection against MAL, rank by count after grouping
[8] = selection against MAL, rank by count before grouping
[9] = 4R selection against MAL, rank after grouping
[10] = 4R selection against MAL, rank before grouping
[11] = selection against MAL, rank after grouping
[12] = selection against MAL, rank before grouping
[13] = P3_MAL pool: P3 T-Surf phage library
[14] = P8_MAL pool: P8 T-Surf phage library

T1 sequence (P58753 79-221): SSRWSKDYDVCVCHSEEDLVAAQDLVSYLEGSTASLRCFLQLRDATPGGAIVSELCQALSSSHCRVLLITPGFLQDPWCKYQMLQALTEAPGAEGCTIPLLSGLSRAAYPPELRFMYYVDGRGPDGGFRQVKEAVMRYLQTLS

Sequence: RLLKWKEALQQFHSGV
Rank (after) [1]: 177
Rank (before) [2]: 2497

Sequence: SAAYDDFWDRLIRMIE
Rank (after) [3]: 173
Rank (before) [4]: 1007

Sequence: ERILNQLRRSSQSIAK
Rank (after) [1]: 421
Rank (before) [2]: 2078

Sequence: WFYVRLVILALRDNNM
P8_MAL Rank (after) [7]: 690
P8_MAL Rank (before) [8]: 1128

Sequence: WFYDRLVRLILRDTKV
P8_MAL Rank (after) [9]: 647
P8_MAL Rank (before) [10]: 1141

Sequence: SPQEQDGFWVRLIEAL
Rank (after) [3]: 466
Rank (before) [4]: 2527

Sequence: AFFWTQLSTVMGKPTM
P8_MAL Rank (after) [11]: 527
P8_MAL Rank (before) [12]: 1722

Sequence: LFFGASLKQLLRSDGR
P8_MAL Rank (after) [9]: 580
P8_MAL Rank (before) [10]: 2134

Sequence: KWFWEKLRYALTYRPAT
P3_MAL Rank (after) [9]: 602
P3_MAL Rank (before) [10]: 3516

Sequence: RNFVADLFPALPNKGI
P8_MAL Rank (after) [11]: 566
P8_MAL Rank (before) [12]: 2232

Sequence: RGFLSHLLLHLQAKDH
Rank (after) [1]: 395
Rank (before) [2]: 2364

Sequence: WFYERLVSLILRATQV
Rank (after) [3]: 474
Rank (before) [4]: 1228

Sequence: AFLYTFLINLTRPTNF
Population [14]: 0.0034%

Sequence: KGLTEIADLKGKKCDR
P3_MAL Rank (after) [11]: 529
P3_MAL Rank (before) [12]: 3531

Sequence: AFLGHLYNALVQAGIH
Population [14]: 0.00371%

Sequence: HFYWILLKSILGETRL
P8_MAL Rank (after) [9]: 618
P8_MAL Rank (before) [10]: 2426

Sequence: LKWGDPYFWIKLRYTM
P3_MAL Rank (after) [5]: 233
P3_MAL Rank (before) [6]: 2212

Sequence: YAFTGYLHRYVVQRGV
P3_MAL Rank (after) [11]: 519
P3_MAL Rank (before) [12]: 1355

Sequence: YAFTGHQHNYMVQRGV
Rank (after) [1]: 420
Rank (before) [2]: 1447

Sequence: KELEKYQLAILERDFQ
P3_MAL Rank (after) [11]: 489
P3_MAL Rank (before) [12]: 3596

Sequence: YTALTNSASHTFRGND
Rank (after) [1]: 444
Rank (before) [2]: 1551

Sequence: FISHLYAALQRKHVET
Rank (after) [1]: 96
Rank (before) [2]: 96

Sequence: RNNLMDRLYQALDLLR
P8_MAL Rank (after) [11]: 545
P8_MAL Rank (before) [12]: 2298

Sequence: SFLYTLLSNLTHPTNF
P8_MAL Rank (after) [5]: 265
P8_MAL Rank (before) [6]: 1449

Sequence: WFYERLVSLILRDTKE
Population [14]: 0.00309%

Sequence: YLKWGYTRCWDRLRFA
Rank (after) [1]: 478
Rank (before) [2]: 1518

Sequence: RNFVAYLFRARANKGI
P8_MAL Rank (after) [5]: 225
P8_MAL Rank (before) [6]: 2193

Sequence: LQNQWKLALTQAAN
P3_MAL Rank (after) [5]: 231
P3_MAL Rank (before) [6]: 827

Sequence: DTKLKKCESIAPELLL
P8_MAL Rank (after) [5]: 204
P8_MAL Rank (before) [6]: 2014

Sequence: AFFWTHLKNLPRNPTF
P8_MAL Rank (after) [5]: 285
P8_MAL Rank (before) [6]: 1721

Sequence: TFLRHLYNALVQAGLH
P8_MAL Rank (after) [5]: 245
P8_MAL Rank (before) [6]: 2627

Sequence: PNLRTKVLSYPMRTMT
P3_MAL Rank (after) [7]: 741
P3_MAL Rank (before) [8]: 2707

Sequence: AFFLGTAAYRAGQTDD
P8_MAL Rank (after) [5]: 198
P8_MAL Rank (before) [6]: 802

Sequence: GLSWGPYEWWMGLYDA
P8_MAL Rank (after) [7]: 716
P8_MAL Rank (before) [8]: 1572

Sequence: LFFWESLKNVLRKPGL
P8_MAL Rank (after) [11]: 495
P8_MAL Rank (before) [12]: 2116

Sequence: SLRKKLVRNLIEEFKR
P3_MAL Rank (after) [7]: 688
P3_MAL Rank (before) [8]: 3100

Sequence: AFFWAQLKSVLQSDD
P8_MAL Rank (after) [7]: 679
P8_MAL Rank (before) [8]: 1635

Other lines, results leading:

P8_MAL Rank (after) [5]: 208
P8_MAL Rank (before) [6]: 2257
Sequence: RKFEAYLFQALANKGI

P3_MAL Rank (after) [5]: 199
P3_MAL Rank (before) [6]: 1440
Sequence: YAFTGHLNRSLVQRGV

Rank (after) [1]: 389
Rank (before) [2]: 2337
Sequence: RYIMPHPQELIQKNS

Rank (after) [3]: 415
Rank (before) [4]: 1755
Sequence: AFLCTHLKNLIHKTTI

Population [13]: 0.00902%
Sequence: HQWRNALTAAANLSGW

P3_MAL Rank (after) [7]: 709
P3_MAL Rank (before) [8]: 1219
Sequence: WFFPETGKIFEARKTI

Rank (after) [3]: 127
Rank (before) [4]: 1699
Sequence: AFFWEQLRTLLGQPTM

P3_MAL Rank (after) [7]: 746
P3_MAL Rank (before) [8]: 1787
Sequence: AFFWEQLRPALKERLP

Population [14]: 0.00309%
Sequence: WFYERLVSLILRDSKV

P3_MAL Rank (after) [9]: 659
P3_MAL Rank (before) [10]: 2860
Sequence: HQAFWERLWAKMQAPI

P8_MAL Rank (after) [5]: 242
P8_MAL Rank (before) [6]: 1764
Sequence: AFLWTQLKSVLGNPTM

P3_MAL Rank (after) [5]: 283
P3_MAL Rank (before) [6]: 894
Sequence: RGFLSKLSQHILKREK

Rank (after) [3]: 164
Rank (before) [4]: 2209
Sequence: RNFVAYLFQALAKPA

Rank (after) [3]: 163
Rank (before) [4]: 1430
Sequence: WIYERLVSRILRDTKV

P8_MAL Rank (after) [9]: 600
P8_MAL Rank (before) [10]: 1514
Sequence: YFLQVRLFNLLESDDR

Rank (after) [3]: 454
Rank (before) [4]: 2074
Sequence: LFFWEILKQLLRSAGR

P3_MAL Rank (after) [9]: 613
P3_MAL Rank (before) [10]: 3325
Sequence: NQLRNALTASANLSGW

Rank (after) [1]: 127
Rank (before) [2]: 275
Sequence: GFLSHLRHHLQAKDH

P8_MAL Rank (after) [11]: 528
P8_MAL Rank (before) [12]: 2559
Sequence: TFLGHLYIAMVQAAIH

P8_MAL Rank (after) [11]: 577
P8_MAL Rank (before) [12]: 2043
Sequence: ELLLSVFMTLSAPRTV

Population [13]: 0.00488%
Sequence: YAFTGHLHRYLAQRGV

Rank (after) [1]: 441
Rank (before) [2]: 2614
Sequence: RNVMSHLYQGLQNRGI

P3_MAL Rank (after) [7]: 730
P3_MAL Rank (before) [8]: 2666
Sequence: PNLGTKTLNYLTRTKT

Population [14]: 0.00371%
Sequence: AFFLGAAEKRAGQSDDX

P3_MAL Rank (after) [9]: 671
P3_MAL Rank (before) [10]: 2132
Sequence: LHNNRILVLITLPTNV

P8_MAL Rank (after) [11]: 511
P8_MAL Rank (before) [12]: 1354
Sequence: WFLLKFRTVLAHVNDV

P8_MAL Rank (after) [7]: 689
P8_MAL Rank (before) [8]: 2438
Sequence: SEFIQKMILWMNTKVV

P8_MAL Rank (after) [7]: 718
P8_MAL Rank (before) [8]: 1642
Sequence: AFFWAQLKNVLGSPTI

Rank (after) [3]: 167
Rank (before) [4]: 2379
Sequence: QLIQQWMNCTCTSCI

P8_MAL Rank (after) [5]: 272
P8_MAL Rank (before) [6]: 1581
Sequence: AFFLAQLKSEPTNPTM

Rank (after) [1]: 431
Rank (before) [2]: 1700
Sequence: VRHTFAGYLCVALNRL

P3_MAL Rank (after) [11]: 484
P3_MAL Rank (before) [12]: 2258
Sequence: LKVEGWRLALEKAGTL

Rank (after) [1]: 476
Rank (before) [2]: 3209
Sequence: SSCLEGLWRLLELSKK

Population [14]: 0.00371%
Sequence: AFLYTFLINLTHPTNL

Rank (after) [3]: 389
Rank (before) [4]: 2066
Sequence: LFFWASLKNLLRSAGS

Rank (after) [3]: 180
Rank (before) [4]: 2633
Sequence: TFPGHLYNALVQAGIL

P3_MAL Rank (after) [9]: 611
P3_MAL Rank (before) [10]: 1323
Sequence: CRFRQGLWRLLELSKK

Rank (after) [1]: 108
Rank (before) [2]: 233
Sequence: KMQKWKEALHQFHSWV

P8_MAL Rank (after) [7]: 709
P8_MAL Rank (before) [8]: 1873
Sequence: AFLYTFLKNLPHPTNI

P3_MAL Rank (after) [7]: 726
P3_MAL Rank (before) [8]: 2689
Sequence: PNLRTTVPTYLMRTKT

Rank (after) [3]: 182
Rank (before) [4]: 923
Sequence: LVAHEISKKMKIFATI

Population [14]: 0.00309%
Sequence: AFLYTFLINLTHPSNF

P8_MAL Rank (after) [11]: 544
P8_MAL Rank (before) [12]: 1474
Sequence: YFLHFLLFSLPENECI

Rank (after) [3]: 132
Rank (before) [4]: 2331
Sequence: PFLGHLSNALVQAGIH

P3_MAL Rank (after) [9]: 650
P3_MAL Rank (before) [10]: 2550
Sequence: RLQEWRETLCQGHSRV
